This is an account of results in US20120121691A1, “Method for Increasing the Production of a Specific ACYL-Chain Dihydroceramide(s) for Improving the Effectiveness of Cancer Treatments” (priority 2010, published 2012).

The test system of one data set is COG-LL-332. Put plainly: DIMSCAN cytotoxicity assay, COG-LL-332. It counts as cell-based. As to conditions: COG-LL-332, sphinganine 1 μM, GT-11 0.5 μM, 48 hours. The source says:
Cell culture. The pre-T acute lymphoblastic leukemia cell lines MOLT-4 and CCRF-CEM, small cell lung cancer cell line NCI-H146, non-small cell lung cancer cell line NCI-H1792, colon cancer cell lines LoVo and HT-29, and breast cancer cell line MCF-7, were purchased from American Type Culture Collection, Manassas, Va., and grown at 20%/5% and 5%/5%, respectively. COG-LL-317 and COG-LL-332 pre-T acute lymphoblastic leukemia cell lines were obtained from the TTUHSC Cancer Center Cell Repository and grown at 5%/5%. Cell line identities were verified by short tandem repeat analysis and mycoplasma testing was performed. Cell lines were maintained in RPMI-1640 medium supplemented with 10% fetal bovine serum (FBS, Invitrogen) in humidified, 37° C. incubators. For all experiments, ALL cell lines were seeded at […] in RPMI-1640 medium supplemented with 15% fetal bovine serum. Solid tumor cell lines were plated at 5×cells/mL in RPMI-1640 medium supplemented with 10% fetal bovine serum.
Cytotoxicity Assay. Cytoxicity is determined using the DIMSCAN assay system (R. Proffitt et al., Cytometry 24, 204-213 (1996); T. Frgala et al., Proc. AACR, 36, 303 (1995). The system employs digital imaging microscopy to quantify viable cells, which selectively accumulate fluorescein diacetate to become brightly fluorescent. The system is capable of measuring cytotoxicity over a 4-5 log dynamic range by quenching the residual fluorescence of dead and dying cells with eosin Y and quantifying the total fluorescence of viable cells using digital thresholding. Measured fluorescence is directly proportionate to the number of viable cells. A comparison of the total fluorescence of a drug-treated cell population to the fluorescence of a similar number of untreated cells yields a survival fraction. […]
The addition of C22:0-fatty acid, but not C18:0 or C22:1 fatty acids, increased cytotoxicity (FIGS. 7A-7F). […] Cytotoxicity was measured using DIMSCAN, and data was normalized to control and plotted as survival fraction (y-axis). […]

Data set [1] relates to intracellular sphingolipids, MOLT-4. As to the kind of experiment: LC/MS/MS analysis of intracellular sphingolipids, MOLT-4. It counts as cell-based, human. The following applies: for increase in corresponding dihydroceramide over sphinganine+GT-11 alone: MOLT-4, fatty acid with sphinganine+GT-11, six hours, P<0.05. On the procedure:
(§1) LC/MS/MS analysis of intracellular sphingolipids. Sphingolipids were separated using an Agilent 1200 HPLC (LC) and determined by ESI/MS/MS performed on a AB SCIEX 4000 QTRAP Hybrid Triple Quadrupole/Linear Ion Trap mass spectrometer (MS), operating in a multiple reaction monitoring positive ionization mode as described previously with moderate modifications (25). Briefly, 50 μL of a solution (1 μM) of internal sphingolipid standards (including -sphingosine, -sphinganine, -sphingosine-1-phosphate, and -ceramide) was added to each cell pellet sample. Lipids of each sample were extracted twice with 2 mL of the ethyl acetate/isopropyl alcohol/water (60:28:12; v:v) solvent system. Supernatants were transferred to glass tubes (Kimble Chase) and evaporated under air (10 PSI) at 40° C. After reconstitution in methanol (4 mL), 1 ml of each sample was separated for the determination of lipid phosphate. Remaining sample (3 mL) was dried and used for sphingolipid quantification. For ESI/MS/MS, the dried lipid sample was dissolved in mobile phase A. Samples were injected (10 μL) and separated on a Spectra C8SR, 150×3.0 mm, 3-μm particle size column using gradient-elution (mobile phase A/B, prepared as previously described).
Data acquisition, peak integration and analyte quantitation were performed using ABI/SCIEX Analyst 1.4.2 Software. Sphingolipid data were normalized to lipid phosphate as previously described (26). Briefly, samples were dried under air (10 PSI) and lipids were extracted using the method of Bligh and Dyer (27). Of importance for phosphate assay, only Kimble Chase disposable borosilicate tubes were used for minimal sample contamination. […] Samples were then incubated with ammonium molybdate and ascorbic acid as previously described, and absorbance ([…]) was read using a SpectraMax.
Cells were treated for 48 hours with Sa (0-4 μM)+/−GT-11 (0.5 μM) with or without C18:0-, C22:0- or C22:1-fatty acids. Cytotoxicity was measured using DIMSCAN, and data was normalized to control and plotted as survival fraction (y-axis). […]

For data set [2], the system named is intracellular sphingolipids, COG-LL-332. As to the kind of experiment: LC/MS/MS analysis of intracellular sphingolipids, COG-LL-332. It counts as cell-based, human. The following applies: for increase in corresponding dihydroceramide over sphinganine+GT-11 alone: COG-LL-332, fatty acid with sphinganine+GT-11, six hours, P<0.05. The protocol: as §1
Data acquisition, peak integration and analyte quantitation were performed using ABI/SCIEX Analyst 1.4.2 Software. Sphingolipid data were normalized to lipid phosphate as previously described (26). Briefly, samples were dried under air (10 PSI) and lipids were extracted using the method of Bligh and Dyer (27). Of importance for phosphate assay, only Kimble Chase disposable borosilicate tubes were used for minimal sample contamination. Organic phase was transferred to glass tubes and a known volume was separated to a new tube and dried at 80° C. Phosphate standards and dried samples were then heated with ashing buffer (water:10 N:70% [40:9:1]) at 160° C. overnight. Samples were then incubated with ammonium molybdate and ascorbic acid as previously described, and absorbance ([…]) was read using a SpectraMax.
Cells were treated for 48 hours with Sa (0-4 μM)+/−GT-11 (0.5 μM) with or without C18:0-, C22:0- or C22:1-fatty acids. Cytotoxicity was measured using DIMSCAN, and data was normalized to control and plotted as survival fraction (y-axis). Gray and white symbols represent long and very long chain fatty acids, respectively. Gray lines encompass data used for sphingolipid correlation analysis with cytotoxicity. Datum point, mean; error bar, SEM. […]
Cytotoxicity was measured using DIMSCAN, and data was normalized to control and plotted as survival fraction (y-axis).

Turning to `CCCCCCCCCCCCCCCCCCCCCC(=O)O` [C22:0-fatty acid], in the data set on COG-LL-332, the “effect of fatty acid co-treatment on cytotoxicity of sphinganine with GT-11” value was “increased”. For the same compound, the “increase of C22:0-dihydroceramide over sphinganine+GT-11 alone” value in data set [1] (MOLT-4, fatty acid with sphinganine 1 μM plus GT-11 0.5 μM, six hours, P<0.01) is 29 fold; in data set [2] (COG-LL-332, fatty acid with sphinganine 1 μM plus GT-11 0.5 μM, six hours, P<0.001) it was 57 fold. The “increase in corresponding dihydroceramide over sphinganine+GT-11 alone” value in data set [1] and in data set [2] was “significant increases” each time. Further, the “increase of C22:0-dihydroceramide compared to 4-HPR alone” value in data set [2] (COG-LL-332, fatty acid with 4-HPR 1.1 μM, six hours, P<0.001) was found to be 8 fold.

For the compound `CCCCCCCC/C=C\CCCCCCCCCCCC(=O)O` [C22:1-fatty acid], in the data set with COG-LL-332, the “effect of fatty acid co-treatment on cytotoxicity of sphinganine with GT-11” value is reported as “not”. Besides, the “increase in corresponding dihydroceramide over sphinganine+GT-11 alone” value in data set [1] and in data set [2] was “significant increases” throughout.
